Laboratory results taken from ChEMBL document CHEMBL3507680, “University of Dundee, Gates Library screen for HepG2 cell viability”.

Assay: Human HepG2 cell viability assay in 384 well format
Type: toxicity, cell-based
Set-up: dose 125 nL, time 70.5 hour; concentration not given beside the values
Conditions: HepG2 cells, read-out: Inhibition

| SMILES | cytotoxicity at 70.5 h [%] |
| --- | --- |
| Cc1csc(C2(NCc3ccc(OCC(F)F)cc3)CCCC2)n1 | -5.7 |
| FC(F)(F)c1cc(NCCn2ncnn2)nc(-c2cccnc2)n1 | -9.6 |
| O=S(=O)(Cc1ccc(F)c(Cl)c1)NC(CO)c1ccco1 (centres undefined) | -11 |
| Cc1ccc(-c2nc(CNc3ccc(C(N)=O)c(C)c3)cs2)o1 | -8.76 |
| CC(C)(CCS(C)(=O)=O)CNc1ccc2ccc(F)cc2n1 | -2.27 |
| CCC(C(=O)N1CCCSCC1)N1CCCC1=O (centres undefined) | 12.1 |
| Cn1cccc(NC(=O)N2CCC(COCc3ccccc3)C2)c1=O (centres undefined) | 7.11 |
| O=S(=O)(NCC1CCN(CCN2CCOCC2)C1)c1ccccc1F (centres undefined) | 13.9 |
| Cc1ccc2c(c1)OC(C)CN2C(=O)CCc1cccnc1 (centres undefined) | 1.51 |
| Cc1ccc2c(c1)OC(C)CN2C(=O)CCc1cscn1 (centres undefined) | 0.46 |
| O=C(NCCCN1CCN(c2ncccn2)CC1)NCC1CCCO1 (centres undefined) | -3.85 |
| CCc1nnsc1C(=O)N(C)Cc1ccc(Br)o1 | -2.39 |
| CCc1nnsc1C(=O)N(C)Cc1ccc(C)o1 | -0.808 |
| O=C(NCCCN1CCN(c2ncccn2)CC1)NCC1CCOC1 (centres undefined) | 3.56 |
| Cc1ccc(NC(=O)CSCc2cccnc2)nc1 | -1.37 |
| CC1COCCN1C(=O)NCCCn1ccnc1 (centres undefined) | -2.86 |
| CC(=O)N1CCCC(C(=O)N2CCN(Cc3cc(C)on3)CC2)C1 (centres undefined) | 2.35 |
| COc1ccc(CNc2c(C)nn(C(C)C)c2C)cc1 | 13.9 |
| O=C(Cc1ccccc1F)NCC1CCN(CCc2ccccc2)C1 (centres undefined) | -1.68 |
| CC(C)NC(=O)[C@@H]1C[C@H]2OCC[C@H]2N(Cc2ccc3ccccc3n2)C1 | 12.8 |
| Cc1cc(C(=O)N2CCn3cc(CN4CCN(C)CC4)nc3C2)no1 | -11.8 |
| Cc1cccc(C(=O)N2CCC3(CC2)CC(c2cnn(C)c2)CO3)c1 (centres undefined) | -15 |
| CNC(=O)N1CCc2nc(C(=O)NCc3cccc(OC)c3)sc2CC1 | 18 |
| O=C(NC1CC1)[C@@H]1CCO[C@@H]2CCN(Cc3ccco3)C[C@H]21 | -13.9 |
| CNC(=O)C1Cn2ccnc2C2(CCN(Cc3c(C)noc3C)CC2)O1 (centres undefined) | 21.5 |

| SMILES | cytotoxicity at 70.5 h [%] |
| --- | --- |
| Cn1cc(C2COC3(CCN(C(=O)c4cccn4C)CC3)C2)cn1 (centres undefined) | 14.2 |
| Cn1cc(C2COC3(CCN(C(=O)c4ccn(C)n4)CC3)C2)cn1 (centres undefined) | -14.5 |
| CS(=O)(=O)N[C@@H]1CCO[C@]2(CCN(C(=O)c3cscn3)C2)C1 | -7.64 |
| Cc1ccc(C(=O)N2C[C@@H]3OCCN(CC4CCCC4)[C@@H]3C2)cn1 | -6.94 |
| O=C(Nc1cccnc1)[C@H]1C[C@@H]2CN(Cc3ccc(F)cc3)C[C@H]1O2 | -7.11 |
| Cc1ccc(CN2C[C@H]3C[C@H](C(=O)Nc4cccnc4)[C@@H](C2)O3)cc1 | 2.68 |
| O=C(c1cccnc1)N1C[C@@H]2OCCN(CCN3CCCC3)[C@@H]2C1 | -10 |
| CCN1Cc2c(C(=O)NC(C)C(C)C)ncn2-c2ccccc2S1(=O)=O (centres undefined) | 6.35 |
| CN1CCN(Cc2cnc3n2CCN(C(=O)c2ccncc2)C3)CC1 | -10.3 |
| CCCS(=O)(=O)N1CC[C@H]2O[C@H](c3nnc(C)o3)CC[C@H]21 | 11.3 |
| CCS(=O)(=O)N1CC[C@H]2O[C@H](c3nnc(C)o3)CC[C@H]21 | -13.4 |
| CNC(=O)c1ncn2c1CN(CCC(C)C)S(=O)(=O)c1ccccc1-2 | -9.5 |
| CN1CCN(Cc2cnc3n2CCN(C(=O)c2ccccn2)C3)CC1 | -12.3 |
| COCC(=O)N1CC[C@@H]2O[C@H](COCc3csc(C)n3)CC[C@@H]21 | -4.59 |
| CN1CCN(Cc2cnc3n2CCN(C(=O)c2ccoc2)C3)CC1 | -7.31 |
| CN1CCN(Cc2cnc3n2CCN(C(=O)c2ccnnc2)C3)CC1 | -14.6 |
| CN1CCN(Cc2cnc3n2CCN(C(=O)c2cnccn2)C3)CC1 | -4.26 |
| CCS(=O)(=O)N1CC[C@H]2O[C@@H](c3nnc(C)o3)CC[C@H]21 | -8.41 |
| CCOCC1CN(S(=O)(=O)C2CC2)Cc2cnn(C)c21 (centres undefined) | 20 |
| Cc1ccc(C(=O)N2CC[C@@]3(O)CCN(C(=O)N(C)C)C[C@H]3C2)cc1Cl | -8.07 |
| CCCc1cc(C(=O)N2Cc3cnc(C(C)(C)C)nc3C2)ccn1 | 0.0745 |
| CNc1ncccc1CN1CCN(c2cc(NC3CC3)nc(N)n2)CC1 | 0.197 |
| Cc1cccc(C(=O)N2CC[C@]3(C[C@H](OCc4ccccn4)CO3)C2)c1 | 11.1 |
| c1cnc(NC2COC3(CCN(Cc4nccs4)CC3)C2)cn1 (centres undefined) | -8.19 |
| O=C(Cc1cccs1)N1CCn2cc(Cn3cccn3)nc2C1 | -13.4 |

| SMILES | cytotoxicity at 70.5 h [%] |
| --- | --- |
| O=C(c1ccncc1F)N1CC[C@@H]2CN(c3ncccn3)CCO[C@@H]2C1 | -11.2 |
| O=C(c1ccccc1)N1CCC[C@]2(C[C@@H](OCc3ccccn3)CO2)C1 | -13.1 |
| Cn1nccc1C(=O)N1CC[C@]2(C[C@H](OCc3ccccn3)CO2)C1 | -11.1 |
| Cc1ccc(C(=O)N2CCC3(CC2)CC(c2cnn(C)c2)CO3)cn1 (centres undefined) | -10.6 |
| O=C([C@H]1C[C@H]2OCC[C@H]2N(Cc2ccc(F)cc2)C1)N1CCCCO1 | 20.6 |
| CNC(=O)N1C[C@H]2C[C@H](C(=O)Nc3cccnc3)[C@@H](C1)O2 | -2.82 |
| O=C([C@H]1C[C@H]2OCC[C@H]2N(CC2CC2)C1)N1CCCCO1 | -4.54 |
| O=C([C@H]1C[C@H]2OCC[C@H]2N(Cc2ccccn2)C1)N1CCCCO1 | -9.44 |
| O=C([C@H]1C[C@H]2OCC[C@H]2N(Cc2ccoc2)C1)N1CCCCO1 | -6.32 |
| COCCN1CC[C@@H]2O[C@H](COCc3csc(C)n3)CC[C@@H]21 | -15.2 |
| CC1=N[C@@]2(CC[C@@H]3CN(CC4CC4)C[C@@H]32)C(=O)N1CC(C)C | -15.3 |
| Cc1noc([C@@H]2C[C@H]3CN(C(=O)C4CCN(C)CC4)C[C@H]3O2)n1 | -11.3 |
| O=S(=O)(c1cccs1)N1CC[C@@H](O)[C@@H]1Cc1ccncc1 | 18 |
| OCCOCc1ncn2c1CN(Cc1cccs1)CCC2 | 0.851 |
| O=C(NCc1ccco1)[C@H]1COC[C@H]2CN(Cc3ccccn3)C[C@H]21 | -8.72 |
| CN1CCN(C2COC3(CCN(Cc4ccsc4)CC3)C2)CC1 (centres undefined) | -8.09 |
| O=C([C@H]1C[C@H]2OCC[C@H]2N(Cc2cccnc2)C1)N1CCCCO1 | -7.65 |
| Cn1cc(C[C@H]2[C@H](O)CCN2Cc2ccncc2)cn1 | -5.7 |
| Cc1ncsc1CN1Cc2cn(C)nc2C(COCC2CC2)C1 (centres undefined) | 11.6 |
| CO[C@@H]1CCN(Cc2nccn2C)[C@H]1Cc1cccnc1 | 12.4 |
| Cn1cc(CN2CCCC3(CCN(C(=O)c4cnccn4)C3)C2)cn1 (centres undefined) | 11.1 |
| O=C(Cc1ccccn1)N1CCN2C[C@H](OCCN3CCCC3)C[C@H]2C1 | 19.7 |
| Cc1ccc(CN2CCC3(CC2)CC(N2CCN(C)CC2)CO3)s1 (centres undefined) | -9.14 |
| COCC1CN(Cc2ccccn2)Cc2cn(C)nc21 (centres undefined) | -4.86 |
